In PubChem BioAssay (NCI):
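In this assay, cells in 96-well plates receive the compound at five concentrations for 48 hours. Endpoints are linearly interpolated between the surrounding concentrations. GI50 = concentration required for 50% inhibition of growth. TGI is the concentration that stops growth completely.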

Legend:
Assay in all cases: DTP human tumour cell line panel, 48 h
[1] = tested on: 786-0 renal
[2] = tested on: A498 renal
[3] = tested on: A549 NSCLC
[4] = tested on: ACHN renal
[5] = tested on: BT-549 breast
[6] = tested on: CAKI-1 renal
[7] = tested on: CCRF-CEM leukemia
[8] = tested on: COLO 205 colon
[9] = tested on: DU-145 prostate
[10] = tested on: EKVX NSCLC
[11] = tested on: HCC-2998 colon
[12] = tested on: HCT-116 colon
[13] = tested on: HCT-15 colon
[14] = tested on: HL-60(TB) leukemia
[15] = tested on: HOP-62 NSCLC
[16] = tested on: HOP-92 NSCLC
[17] = tested on: HS 578T breast
[18] = tested on: HT29 colon
[19] = tested on: IGROV1 ovarian
[20] = tested on: K-562 leukemia
[21] = tested on: KM12 colon
[22] = tested on: LOX IMVI melanoma
[23] = tested on: M14 melanoma
[24] = tested on: MALME-3M melanoma
[25] = tested on: MCF7 breast
[26] = tested on: MDA-MB-231 breast
[27] = tested on: MDA-MB-435
[28] = tested on: MOLT-4 leukemia
[29] = tested on: NCI-H226 lung
[30] = tested on: NCI-H23 lung
[31] = tested on: NCI-H460 lung
[32] = tested on: NCI-H522 lung
[33] = tested on: NCI/ADR-RES ovarian
[34] = tested on: OVCAR-3 ovarian
[35] = tested on: OVCAR-4 ovarian
[36] = tested on: OVCAR-5 ovarian
[37] = tested on: OVCAR-8 ovarian
[38] = tested on: PC-3 prostate
[39] = tested on: RPMI-8226 leukemia
[40] = tested on: RXF 393 renal
[41] = tested on: SF-268 CNS
[42] = tested on: SF-295 CNS
[43] = tested on: SF-539 CNS
[44] = tested on: SK-MEL-2 melanoma
[45] = tested on: SK-MEL-28 melanoma
[46] = tested on: SK-MEL-5 melanoma
[47] = tested on: SK-OV-3 ovarian
[48] = tested on: SN12C renal
[49] = tested on: SNB-19 CNS
[50] = tested on: SNB-75 CNS
[51] = tested on: SR leukemia
[52] = tested on: SW-620 colon
[53] = tested on: T-47D breast
[54] = tested on: TK-10 renal
[55] = tested on: U251 CNS
[56] = tested on: UACC-257 melanoma
[57] = tested on: UACC-62 melanoma
[58] = tested on: UO-31 renal

## O=S(=O)(Nc1cc(Sc2cccc3cccnc23)c(O)c2ccccc12)c1ccc(F)cc1
[1]
  GI50: 1190 nM
  TGI: 6.85 µM
[2]
  GI50: 3.96 µM
  TGI: 24.1 µM
[3]
  GI50: 538 nM
  TGI: 3.17 µM
[4]
  GI50: 1340 nM
  TGI: 7.78 µM
[5]
  GI50: 3.04 µM
  TGI: 13.7 µM
[6]
  GI50: 2790 nM
[7]
  GI50: 544 nM
  TGI: 11.9 µM
[8]
  GI50: 1690 nM
  TGI: 3.51 µM
[9]
  GI50: 1270 nM
  TGI: 3.81 µM
[10]
  GI50: 1410 nM
  TGI: 6.5 µM
[11]
  GI50: 4.8 µM
  TGI: 15.6 µM
[12]
  GI50: 604 nM
  TGI: 2130 nM
[13]
  GI50: 461 nM
  TGI: 3.16 µM
[14]
  GI50: 2120 nM
  TGI: 5.88 µM
[15]
  GI50: 2050 nM
  TGI: 17 µM
[16]
  GI50: 2020 nM
  TGI: 7.08 µM
[17]
  GI50: 4.44 µM
  TGI: 45.7 µM
[18]
  GI50: 1840 nM
  TGI: 6.59 µM
[19]
  GI50: 1060 nM
  TGI: 4.2 µM
[20]
  GI50: 1370 nM
  TGI: 9.52 µM
[21]
  GI50: 2480 nM
  TGI: 14.2 µM
[22]
  GI50: 624 nM
  TGI: 2820 nM
[23]
  GI50: 1270 nM
  TGI: 3.53 µM
[24]
  GI50: 1980 nM
  TGI: 4.94 µM
[25]
  GI50: 1050 nM
  TGI: 3.21 µM
[26]
  GI50: 837 nM
  TGI: 8.9 µM
[27]
  GI50: 2270 nM
  TGI: 8.66 µM
[28]
  GI50: 432 nM
  TGI: 3.21 µM
[29]
  GI50: 3.24 µM
  TGI: 19 µM
[30]
  GI50: 1460 nM
  TGI: 4.32 µM
[31]
  GI50: 590 nM
  TGI: 11 µM
[32]
  GI50: 1400 nM
  TGI: 3.9 µM
[33]
  GI50: 731 nM
  TGI: 5.62 µM
[34]
  GI50: 869 nM
  TGI: 3.08 µM
[35]
  GI50: 504 nM
  TGI: 1800 nM
[36]
  GI50: 2630 nM
  TGI: 10.6 µM
[37]
  GI50: 645 nM
  TGI: 10.3 µM
[38]
  GI50: 740 nM
  TGI: 12.1 µM
[39]
  GI50: 2090 nM
  TGI: 7.36 µM
[40]
  GI50: 1970 nM
  TGI: 5.43 µM
[41]
  GI50: 1890 nM
  TGI: 11.9 µM
[42]
  GI50: 3.34 µM
  TGI: 12.8 µM
[43]
  GI50: 2040 nM
  TGI: 5.99 µM
[44]
  GI50: 1840 nM
  TGI: 7.52 µM
[45]
  GI50: 1560 nM
  TGI: 4.16 µM
[46]
  GI50: 1660 nM
  TGI: 3.16 µM
[47]
  GI50: 3.23 µM
  TGI: 13.4 µM
[48]
  GI50: 970 nM
  TGI: 3.61 µM
[49]
  GI50: 2550 nM
  TGI: 17.1 µM
[50]
  GI50: 3.68 µM
  TGI: 15.2 µM
[51]
  GI50: 465 nM
  TGI: 7.63 µM
[52]
  GI50: 1410 nM
  TGI: 3.86 µM
[53]
  GI50: 1750 nM
  TGI: 4.67 µM
[54]
  GI50: 2810 nM
  TGI: 11.5 µM
[55]
  GI50: 839 nM
  TGI: 10.4 µM
[56]
  GI50: 1750 nM
  TGI: 4.56 µM
[57]
  GI50: 1850 nM
  TGI: 4.39 µM
[58]
  GI50: 1090 nM
  TGI: 4.75 µM
